{"source": "patent US20100015058A1", "about": "“RADIOLABELED BBN-RGD HETERODIMERS FOR CANCER TARGETING” (STANFORD UNIVERSITY, priority 2008, published 2010)", "biological_target": "T1, GRPR (Homo sapiens, UniProt P30550)", "T1 construct": "Experiments were performed on GRPR-expressing PC-3 cells following our previously described procedure; endogenous in cells; host or cells: PC-3 human prostate carcinoma cells", "T1 sequence (P30550 whole entry)": "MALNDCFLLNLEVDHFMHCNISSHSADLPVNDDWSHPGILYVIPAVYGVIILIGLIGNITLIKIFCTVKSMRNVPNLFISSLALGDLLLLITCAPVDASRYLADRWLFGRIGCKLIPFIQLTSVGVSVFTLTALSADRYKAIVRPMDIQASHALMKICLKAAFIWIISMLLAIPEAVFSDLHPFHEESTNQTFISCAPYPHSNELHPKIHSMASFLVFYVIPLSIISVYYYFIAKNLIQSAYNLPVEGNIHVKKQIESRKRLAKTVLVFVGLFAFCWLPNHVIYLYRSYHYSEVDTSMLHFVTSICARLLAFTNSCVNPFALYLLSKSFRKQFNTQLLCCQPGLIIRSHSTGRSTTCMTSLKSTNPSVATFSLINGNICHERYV", "experiment": "Displacement cell-binding assay with ^125I-[Tyr4]BBN on PC-3 cells", "settings": "PC-3 cells, FIG. 14B", "experimental": "Experiments were performed with triplicate samples.\nBBN as the radioligand. […] Experiments were performed twice with triplicate samples."}
{"smiles": "N=C(N)NCCC[C@@H]1NC(=O)[C@H](CCCCN)NC(=O)[C@@H](Cc2ccc(O)cc2)NC(=O)[C@H](CC(=O)O)NC(=O)CNC1=O", "note": "[c(RGDyK), cyclo(Arg-Gly-Asp-D-Tyr-Lys), reference compound]", "values": [{"measurement": "binding inhibition of ^125I-[Tyr4]BBN with GRPR", "value": "did not show significant binding inhibition"}]}
